Data on five molecules can be found in patent publication US10617769B2, “Bacterium-contained hydrogel and method of making the same” (TCI Co., Ltd., priority 2016, dated 2020).

One test relates to P. acnes. Nature of the test: Fermentation of PEG-monosaccharide polymers in solid agar medium with phenol red. It is filed as cell-based, Propionibacterium acnes. Particulars: compound (+), P. acnes added to solid agar medium. Here is the method:
(§1) The experimental method is described as follows: compound A and compound B were respectively added to the solid agar media, and S. epidermidis or P. acnes were added to the media, then the bacteria were incubated, and then the color of phenol red in the media were recorded.

For a further test, the system named is S. epidermidis. Described as above. It is filed as cell-based, Staphylococcus epidermidis. The note with it: compound (+), S. epidermidis added to solid agar medium. Here is the method: as §1
In test [1] the test system is USA300. Nature of the test: Minimum bactericidal concentration (MBC) assay, anti-USA300 activity of SCFAs. It is filed as cell-based, Staphylococcus aureus. The note with it: USA300 10^6 CFU/mL, overnight incubation, tested 0.02 mM to 100 mM; for MBC: Staphylococcus aureus. Here is the method:
Experimental method: USA 300 (10^6 CFU/m L) were respectively incubated with different concentrations of butyric acid or acetic acid on 96-well microtiter plates overnight; the testing concentrations of acetic acid and butyric acid were from 0.02 mM to 100 mM, each well was respectively added 100 microliters of acetic acid or butyric acid with different concentrations. In the control groups, only PBS was added to the wells. After incubation, the USA300 was diluted 1:10^0 to 1:10^5 with PBS, 5 μl of the dilution was spread to the agar plate; after overnight incubation, colonies (CFU) on the algal plate were counted. MBC is defined as the degree of sterilization at 99.9% (greater than […] colony/mL).
Referring to FIG. 4A through FIG. 4D. FIG. 4A and FIG. 4C show the images of bacterial growth on culture plates. […] UD means undetectable.

For test [2], the system named is USA300. The note with it: in vitro and in vivo; stated as known; cited from earlier work.

Converted amounts (≈) assume the structure as drawn.

For the molecule `C#CCOCCOCCOCCOCCOC1OC(CO)C(O)C(O)C1O` [Compound A, propargyl-PEG5-beta-D-glucose], the “Color of phenol red in the medium” value in the test with P. acnes is “Red”; in the test on S. epidermidis it was “Yellow”. Turning to `CCCC(=O)O` [butyric acid], in the test on USA300 [1], the MBC was 10 mM (≈ 881 µg/mL) and the “Concentration for complete inhibition” value is reported as 50 mM. The corresponding values for `CC(=O)O` [acetic acid] are 10 mM (≈ 601 µg/mL) and 50 mM.

As to `C#CCOCCOCCOCCOCCOC1OC(COC(C)=O)C(OC(C)=O)C(OC(C)=O)C1OC(C)=O` [Compound B, PEG5-tetra-Ac-beta-D-glucose], the “Color of phenol red in the medium” value with P. acnes is given as “Red”; with S. epidermidis, “Yellow”. For the molecule `CCC(=O)O` [propionic acid], in the test on USA300 [2], the “Growth of USA300” value is listed as “suppress the growth of USA300”.

As a reminder, the MBC is the smallest concentration meeting the test's criterion for killing. High values mean less potent killing, low ones more potent killing.
